Source: the NIST ThermoML archive (doi:10.1016/j.tca.2014.07.002)

Experiment: xn = mol fraction of the nth substance listed
Conditions: 101 kPa, Liquid, x1 = 0.423; for mass density: Buoyancy - hydrostatic balance

O=C([O-])[O-].[Na+].[Na+] [sodium carbonate] + [Cl-].[Na+]
Conditions | mass density [kg/m3] | viscosity [mPa·s]
973 K | 1830 | 17.02
1023 K | 1810 | 9.285
1073 K | 1800 | 5.31
1123 K | 1760 | 2.468
1173 K | 1730 | 1.219
1223 K | 1720 | –
1273 K | 1680 | –
